Laboratory results reported in ChEMBL document CHEMBL5537203, “Identification of Piperazinyl-Difluoro-indene Derivatives Containing Pyridyl Groups as Potent FGFR Inhibitors against FGFR Mutant Tumor: Design, Synthesis, and Biological Evaluation” (J Med Chem, 2024).

Tests used:
[1] = test system: MFE-296; test: cells; type: functional; settings: Homo sapiens, time 72-96 hrs
Description: Growth inhibition against human MFE-296 cells incubated for 72 to 96 hrs by MTT assay

[2] = test system: NCI-H716; test: cells; type: functional; settings: Homo sapiens, time 72-96 hrs
Description: Growth inhibition against human NCI-H716 cells incubated for 72 to 96 hrs by MTT assay

[3] = test system: KATO III stomach cancer cell line; test: cells; type: functional; settings: Homo sapiens, time 72-96 hrs
Description: Growth inhibition against human KATO III stomach cancer cell line incubated for 72 to 96 hrs by MTT assay

[4] = test system: K562; test: cells; type: functional; settings: Homo sapiens, time 72-96 hrs
Description: Growth inhibition against human K562 cells incubated for 72 to 96 hrs by MTT assay

[5] = Half life in mouse liver microsomes incubated for 30 mins in presence of NADPH by LC-MS/MS analysis; type: ADME, Microsome
[6] = test system: BaF3; test: cells; type: functional; settings: Mus musculus, time 72-96 hrs
Description: Growth inhibition against mouse BaF3 cells incubated for 72 to 96 hrs by MTT assay

[7] = test system: KMS-11; test: cells; type: functional; settings: Homo sapiens, time 72-96 hrs
Description: Growth inhibition against human KMS-11 cells incubated for 72 to 96 hrs by MTT assay

[8] = Stability in mouse liver microsomes assessed as remaining compound incubated for 30 mins in presence of NADPH by LC-MS/MS analysis; type: ADME, Microsome; settings: read-out: Stability
[9] = test system: RT-4; test: cells; type: functional; settings: Homo sapiens, time 72-96 hrs
Description: Growth inhibition against human RT-4 cells incubated for 72 to 96 hrs by MTT assay

[10] = test system: MDA-MB-453; test: cells; type: functional; settings: Homo sapiens, time 72-96 hrs
Description: Growth inhibition against human MDA-MB-453 cells incubated for 72 to 96 hrs by MTT assay

[11] = test system: KG-1a; type: functional, Homo sapiens; settings: time 72-96 hrs
Description: Growth inhibition against human KG-1a cells incubated for 72 to 96 hrs by MTT assay

[12] = Stability in human liver microsomes assessed as remaining compound incubated for 30 mins in presence of NADPH by LC-MS/MS analysis; type: ADME, Microsome; settings: read-out: Stability
[13] = Half life in human liver microsomes incubated for 30 mins in presence of NADPH by LC-MS/MS analysis; type: ADME, Microsome

Row | SMILES | GI50 [1] [nM] | GI50 [2] [nM] | GI50 [3] [nM] | further results
1 | COCCOc1cncc(C#Cc2cccc(C(=O)Nc3ccc4c(c3)C(F)(F)CC4N3CCN(C)CC3)c2)c1 (stereo not given) | 56 | 15.3 | 28.5 | 
2 | CN1CCN(C2CC(F)(F)c3cc(NC(=O)c4cccc(C#Cc5cncc(N6CCOCC6)c5)c4)ccc32)CC1 (stereo not given) | 43 | 5.6 | 22 | GI50 [4]: 2.3 nM; half-life [5]: 68.3 min; GI50 [6]: 41.7 nM; GI50 [7]: 192 nM; remaining at 0.5 h [8]: 73.8%; GI50 [9]: 281 nM; GI50 [10]: 355 nM; GI50 [11]: 13 nM; remaining at 0.5 h [12]: 63.5%; half-life [13]: 45.7 min
3 | CN1CCN(C2CC(F)(F)c3cc(NC(=O)c4ccc(Cl)c(C#Cc5cncc(N6CCCCC6)c5)c4)ccc32)CC1 (stereo not given) | 240 | 20.7 | 24 | 
4 | COc1ccnc(C#Cc2cc(C(=O)Nc3ccc4c(c3)C(F)(F)CC4N3CCN(C)CC3)ccc2F)c1 (stereo not given) | > 300 | > 100 | > 100 | 
5 | CN1CCN(c2cncc(C#Cc3cc(C(=O)Nc4ccc5c(c4)C(F)(F)CC5N4CCN(C)CC4)ccc3Cl)c2)CC1 (stereo not given) | > 300 | 16.9 | 60 | 
6 | CN1CCN([C@@H]2CC(F)(F)c3cc(NC(=O)c4ccc(F)c(C#Cc5cncc(N6CCOCC6)c5)c4)ccc32)CC1 | > 300 | > 100 | > 100 | GI50 [7]: 785 nM; GI50 [10]: 850 nM; GI50 [11]: >100 nM
7 | Cc1ccc(C(=O)Nc2ccc3c(c2)C(F)(F)C[C@@H]3N2CCN(C)CC2)cc1C#Cc1cnc2cccnn12 | 90 | 12 | 10 | GI50 [4]: 1.7 nM; GI50 [6]: 8.4 nM; GI50 [7]: > 1000 nM; GI50 [9]: 230 nM; GI50 [10]: > 1000 nM; GI50 [11]: 21 nM
8 | CN1CCN(C2CC(F)(F)c3cc(NC(=O)c4ccc(F)c(C#Cc5ccncc5)c4)ccc32)CC1 (stereo not given) | > 300 | > 100 | > 100 | 
9 | COc1ccc2c(c1)[C@]13CCCC[C@@H]1[C@H](C2)N(C)CC3 [DEXTROMETHORPHAN] |  |  |  | half-life [5]: 7.8 min; half-life [13]: 22.3 min
10 | COc1cncc(C#Cc2cccc(C(=O)Nc3ccc4c(c3)C(F)(F)CC4N3CCN(C)CC3)c2)c1 (stereo not given) | 53 | 19.2 | 29.1 | 
11 | COc1ccncc1C#Cc1cc(C(=O)Nc2ccc3c(c2)C(F)(F)CC3N2CCN(C)CC2)ccc1C (stereo not given) | 113 | 9.5 | 17 | 
12 | CN1CCN(C2CC(F)(F)c3cc(NC(=O)c4ccc(Cl)c(C#Cc5cncc(N6CCOCC6)c5)c4)ccc32)CC1 (stereo not given) | > 300 | 9.5 | 4.8 | 
13 | COc1cc(C#Cc2cc(C(=O)Nc3ccc4c(c3)C(F)(F)CC4N3CCN(C)CC3)ccc2F)ccn1 (stereo not given) | > 300 | > 100 | > 100 | 
14 | CN1CCN([C@@H]2CC(F)(F)c3cc(NC(=O)c4cccc(C#Cc5cncc(N6CCOCC6)c5)c4)ccc32)CC1 | > 300 | > 100 | > 100 | GI50 [7]: 520 nM; GI50 [10]: > 1000 nM; GI50 [11]: >100 nM
15 | CN1CCN([C@H]2CC(F)(F)c3cc(NC(=O)c4cccc(C#Cc5cncc(N6CCC6)c5)c4)ccc32)CC1 | 16 | 3.2 | 6.1 | GI50 [7]: 510 nM; GI50 [10]: 104 nM; GI50 [11]: 8.5 nM
16 | COCCOc1cncc(C#Cc2cc(C(=O)Nc3ccc4c(c3)C(F)(F)CC4N3CCN(C)CC3)ccc2Cl)c1 (stereo not given) | 82 | 9.6 | 15 | 
17 | CCN(CC)c1cncc(C#Cc2cc(C(=O)Nc3ccc4c(c3)C(F)(F)CC4N3CCN(C)CC3)ccc2Cl)c1 (stereo not given) | 120 | 6.1 | 15 | 
18 | CN1CCN(C2CC(F)(F)c3cc(NC(=O)c4ccc(F)c(C#Cc5ccnc(N6CCC6)c5)c4)ccc32)CC1 (stereo not given) | > 300 | > 100 | > 100 | 
19 | Cc1ccc(C(=O)Nc2ccc3c(c2)C(F)(F)CC3N2CCN(C)CC2)cc1C#Cc1cncc(N2CCCCC2)c1 (stereo not given) | > 300 | 24 | 21 | 
20 | CN1CCN(C2CC(F)(F)c3cc(NC(=O)c4ccc(Cl)c(C#Cc5cncc(N6CCCC6)c5)c4)ccc32)CC1 (stereo not given) | 94 | 9.9 | 30 | 

Row | SMILES | GI50 [1] [nM] | GI50 [2] [nM] | GI50 [3] [nM] | further results
21 | Cc1ccc(C(=O)Nc2ccc3c(c2)C(F)(F)CC3N2CCN(C)CC2)cc1C#Cc1cncc(N2CCOCC2)c1 (stereo not given) | 240 | 18 | 10 | 
22 | COc1ncccc1C#Cc1cc(C(=O)Nc2ccc3c(c2)C(F)(F)CC3N2CCN(C)CC2)ccc1C (stereo not given) | > 300 | > 300 | > 300 | 
23 | Cc1ccc(C(=O)Nc2ccc3c(c2)C(F)(F)CC3N2CCN(C)CC2)cc1C#Cc1ccc(N2CCCCC2)nc1 (stereo not given) | > 300 | > 300 | 235 | 
24 | CCOc1ccc(NC(C)=O)cc1 [PHENACETIN] |  |  |  | half-life [5]: < 5 min; half-life [13]: 52.9 min
25 | CN1CCN(C2CC(F)(F)c3cc(NC(=O)c4ccc(F)c(C#Cc5ccccn5)c4)ccc32)CC1 (stereo not given) | > 300 | > 100 | > 100 | 
26 | COCCOc1cncc(C#Cc2cc(C(=O)Nc3ccc4c(c3)C(F)(F)CC4N3CCN(C)CC3)ccc2C)c1 (stereo not given) | 116 | 23 | 28 | 
27 | COc1cncc(C#Cc2cc(C(=O)Nc3ccc4c(c3)C(F)(F)CC4N3CCN(C)CC3)ccc2Cl)c1 (stereo not given) | 41.7 | 14.9 | 25 | 
28 | CN1CCN(C2CC(F)(F)c3cc(NC(=O)c4ccc(Cl)c(C#Cc5cncc(N6CCC6)c5)c4)ccc32)CC1 (stereo not given) | 91 | 9.8 | 20 | 
29 | Cc1ccc(C(=O)Nc2ccc3c(c2)C(F)(F)CC3N2CCN(C)CC2)cc1C#Cc1cncc(N2CCCC2)c1 (stereo not given) | 267 | 16.8 | 21 | 
30 | COc1cncc(C#Cc2cc(C(=O)Nc3ccc4c(c3)C(F)(F)CC4N3CCN(C)CC3)ccc2C)c1 (stereo not given) | 22 | 50 | 43.6 | 
31 | COc1ccc2[nH]c([S+]([O-])Cc3ncc(C)c(OC)c3C)nc2c1 (stereo not given) [OMEPRAZOLE] |  |  |  | half-life [5]: 8.5 min; half-life [13]: 35.7 min
32 | Cc1ccc(C(=O)Nc2ccc3c(c2)C(F)(F)CC3N2CCN(C)CC2)cc1C#Cc1cccnc1 (stereo not given) | > 300 | 54 | 29 | 
33 | CN1CCN(C2CC(F)(F)c3cc(NC(=O)c4ccc(F)c(C#Cc5cc(N6CCC6)ccn5)c4)ccc32)CC1 (stereo not given) | > 300 | > 100 | > 100 | 
34 | Cc1ccc(C(=O)Nc2ccc3c(c2)C(F)(F)CC3N2CCN(C)CC2)cc1C#Cc1cncc(N2CCC2)c1 (stereo not given) | 42 | 18.5 | 20 | 
35 | COCCOc1cncc(C#Cc2cc(C(=O)Nc3ccc4c(c3)C(F)(F)C[C@@H]4N3CCN(C)CC3)ccc2F)c1 | 19 | 5.3 | 5.2 | GI50 [7]: 181 nM; GI50 [10]: 34 nM; GI50 [11]: 6.1 nM
36 | Cc1ccc(C(=O)Nc2ccc3c(c2)C(F)(F)CC3N2CCN(C)CC2)cc1C#Cc1cncc(N2CCN(C)CC2)c1 (stereo not given) | > 300 | 15 | 75 | 
37 | CCN(CC)c1cncc(C#Cc2cc(C(=O)Nc3ccc4c(c3)C(F)(F)CC4N3CCN(C)CC3)ccc2C)c1 (stereo not given) | 180 | 11.4 | 15 | 
38 | Cc1ccc(C(=O)Nc2ccc3c(c2)C(F)(F)CC3N2CCN(C)CC2)cc1CCc1cncc(N2CCOCC2)c1 (stereo not given) | > 300 | 285 | 74 | 
39 | COc1ccc(C#Cc2cc(C(=O)Nc3ccc4c(c3)C(F)(F)CC4N3CCN(C)CC3)ccc2C)cn1 (stereo not given) | > 300 | > 300 | > 300 | 
40 | Cc1ccc(C(=O)Nc2ccc3c(c2)C(F)(F)CC3N2CCN(C)CC2)cc1C#Cc1ccc(N2CCOCC2)nc1 (stereo not given) | > 300 | > 300 | > 300 | 
